US8003785B2 (Takeda Pharmaceutical Company Limited, priority 2008, dated 2011)

The compounds below were run against T1, PLK1 (Homo sapiens, UniProt P53350) (assay: Biochemical Characterization Assay: HTRF kinase assay, GST-PLK1 phosphorylation of GST-p53). Conditions: GST-PLK1, GST-p53 substrate.
T1 construct: Full-length, active GST-PLK1 is purified from Sf9 insect cells; made in house; host or cells: Sf9 insect cells
How it was run: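 HTRF read-out of p53 phosphorylation: after EDTA stop, anti-phospho-p53 antibody bound 30 min at 37 °C in HEPES pH 7 buffer, with Eu-anti-rabbit/APC-anti-GST detection. Kinase step used full-length Sf9-expressed GST-PLK1 (3 ug/mL) and E. coli GST-p53 substrate, 35 min at 37 °C.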

T1 sequence (P53350 whole entry): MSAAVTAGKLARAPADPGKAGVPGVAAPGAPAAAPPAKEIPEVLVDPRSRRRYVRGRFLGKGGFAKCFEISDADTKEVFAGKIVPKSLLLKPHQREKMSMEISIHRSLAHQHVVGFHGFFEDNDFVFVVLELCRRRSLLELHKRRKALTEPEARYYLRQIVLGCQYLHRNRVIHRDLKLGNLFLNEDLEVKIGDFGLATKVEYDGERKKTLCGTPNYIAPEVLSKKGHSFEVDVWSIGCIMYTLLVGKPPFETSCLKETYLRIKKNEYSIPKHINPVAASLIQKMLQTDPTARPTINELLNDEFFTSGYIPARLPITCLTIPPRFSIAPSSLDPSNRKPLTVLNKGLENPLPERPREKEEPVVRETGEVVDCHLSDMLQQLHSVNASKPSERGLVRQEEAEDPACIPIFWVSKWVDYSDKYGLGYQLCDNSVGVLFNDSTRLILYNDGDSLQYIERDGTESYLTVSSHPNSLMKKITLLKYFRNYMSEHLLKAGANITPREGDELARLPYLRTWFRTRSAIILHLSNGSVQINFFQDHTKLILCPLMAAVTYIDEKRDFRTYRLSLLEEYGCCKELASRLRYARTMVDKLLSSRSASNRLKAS

Compared with `CN1C(=O)C(F)(F)CN(C2CCCC2)c2nc(Nc3ccc(C(=O)NC4CCN(C(=O)OC(C)(C)C)CC4)cc3C(F)(F)F)ncc21` [Example I-211, 4-[4-(9-cyclopentyl-7,7-difluoro-5-methyl-6-oxo-6,7,8,9-tetrahydro-5H-pyrimido[4,5-b][1,4]diazepin-2-ylamino)-3-trifluoromethyl-benzoylamino]-piperidine-1-carboxylic acid tert-butyl ester], `CN1C(=O)C(F)(F)CN(C2CCCC2)c2nc(Nc3ccc(C(=O)NC4CCN(C(=O)OC(C)(C)C)CC4)cc3F)ncc21` [Example I-229, 4-[4-(9-cyclopentyl-7,7-difluoro-5-methyl-6-oxo-6,7,8,9-tetrahydro-5H-pyrimido[4,5-b][1,4]diazepin-2-ylamino)-3-fluoro-benzoylamino]-piperidine-1-carboxylic acid tert-butyl ester] is lower in IC50: 51 to 500 nM for the first, 1 to 50 nM for the second.

`CN1C(=O)C(F)(F)CN(C2CCCC2)c2nc(Nc3ccc(C(=O)NC4CCNCC4)cc3C(F)(F)F)ncc21` [Example I-212, 4-(9-cyclopentyl-7,7-difluoro-5-methyl-6-oxo-6,7,8,9-tetrahydro-5H-pyrimido[4,5-b][1,4]diazepin-2-ylamino)-N-piperidin-4-yl-3-trifluoromethyl-benzamide] and `CN1C(=O)C(F)(F)CN(C2CCCC2)c2nc(Nc3ccc(C(=O)NC4CCNCC4)cc3F)ncc21` [Example I-230, 4-(9-cyclopentyl-7,7-difluoro-5-methyl-6-oxo-6,7,8,9-tetrahydro-5H-pyrimido[4,5-b][1,4]diazepin-2-ylamino)-3-fluoro-N-piperidin-4-yl-benzamide] fall in the same range of IC50: 1 to 50 nM for the first, 1 to 50 nM for the second.

First: CN1C(=O)C(F)(F)CN(C2CCCC2)c2nc(Nc3ccc(C(N)=O)cc3C(F)(F)F)ncc21 [Example I-213, 4-(9-cyclopentyl-7,7-difluoro-5-methyl-6-oxo-6,7,8,9-tetrahydro-5H-pyrimido[4,5-b][1,4]diazepin-2-ylamino)-3-trifluoromethyl-benzamide]
Second: CN1C(=O)C(F)(F)CN(C2CCCC2)c2nc(Nc3ccc(C(N)=O)cc3F)ncc21 [Example I-231, 4-(9-cyclopentyl-7,7-difluoro-5-methyl-6-oxo-6,7,8,9-tetrahydro-5H-pyrimido[4,5-b][1,4]diazepin-2-ylamino)-3-fluoro-benzamide]
The IC50 of the first is higher: 51 to 500 nM for the first, 1 to 50 nM for the second. The second is the more potent here.

`CCOc1cc(C(=O)NC2CCN(C)CC2)ccc1Nc1ncc2c(n1)N(C1CCCC1)CC(F)(F)C(=O)N2C` [Example I-215, 4-(9-cyclopentyl-7,7-difluoro-5-methyl-6-oxo-6,7,8,9-tetrahydro-5H-pyrimido[4,5-b][1,4]diazepin-2-ylamino)-3-ethoxy-N-(1-methyl-piperidin-4-yl)-benzamide] and `CCOc1cc(C(=O)NC2CCN(CC)CC2)ccc1Nc1ncc2c(n1)N(C1CCCC1)CC(F)(F)C(=O)N2C` [Example I-216, 4-(9-cyclopentyl-7,7-difluoro-5-methyl-6-oxo-6,7,8,9-tetrahydro-5H-pyrimido[4,5-b][1,4]diazepin-2-ylamino)-3-ethoxy-N-(1-ethyl-piperidin-4-yl)-benzamide] fall in the same range of IC50: 1 to 50 nM for the first, 1 to 50 nM for the second.

`CCOc1cc(C(=O)NC2CCOCC2)ccc1Nc1ncc2c(n1)N(C1CCCC1)CC(F)(F)C(=O)N2C` [Example I-217, 4-(9-cyclopentyl-7,7-difluoro-5-methyl-6-oxo-6,7,8,9-tetrahydro-5H-pyrimido[4,5-b][1,4]diazepin-2-ylamino)-3-ethoxy-N-(tetrahydro-pyran-4-yl)-benzamide] and `CCOc1cc(C(=O)NC2CCNCC2)ccc1Nc1ncc2c(n1)N(C1CCCC1)CC(F)(F)C(=O)N2C` [Example I-222, 4-(9-cyclopentyl-7,7-difluoro-5-methyl-6-oxo-6,7,8,9-tetrahydro-5H-pyrimido[4,5-b][1,4]diazepin-2-ylamino)-3-ethoxy-N-piperidin-4-yl-benzamide] fall in the same range of IC50: 1 to 50 nM for the first, 1 to 50 nM for the second.

`CCOc1cc(C(=O)NCCN(C)C)ccc1Nc1ncc2c(n1)N(C1CCCC1)CC(F)(F)C(=O)N2C` [Example I-218, 4-(9-cyclopentyl-7,7-difluoro-5-methyl-6-oxo-6,7,8,9-tetrahydro-5H-pyrimido[4,5-b][1,4]diazepin-2-ylamino)-N-(2-dimethylamino-ethyl)-3-ethoxy-benzamide] and `CCOc1cc(C(=O)NCCCN(C)C)ccc1Nc1ncc2c(n1)N(C1CCCC1)CC(F)(F)C(=O)N2C` [Example I-219, 4-(9-cyclopentyl-7,7-difluoro-5-methyl-6-oxo-6,7,8,9-tetrahydro-5H-pyrimido[4,5-b][1,4]diazepin-2-ylamino)-N-(3-dimethylamino-propyl)-3-ethoxy-benzamide] fall in the same range of IC50: 1 to 50 nM for the first, 1 to 50 nM for the second.

`CCOc1cc(C(=O)NC)ccc1Nc1ncc2c(n1)N(C1CCCC1)CC(F)(F)C(=O)N2C` [Example I-220, 4-(9-cyclopentyl-7,7-difluoro-5-methyl-6-oxo-6,7,8,9-tetrahydro-5H-pyrimido[4,5-b][1,4]diazepin-2-ylamino)-3-ethoxy-N-methyl-benzamide] and `CCOc1cc(C(N)=O)ccc1Nc1ncc2c(n1)N(C1CCCC1)CC(F)(F)C(=O)N2C` [Example I-223, 4-(9-cyclopentyl-7,7-difluoro-5-methyl-6-oxo-6,7,8,9-tetrahydro-5H-pyrimido[4,5-b][1,4]diazepin-2-ylamino)-3-ethoxy-benzamide] fall in the same range of IC50: 1 to 50 nM for the first, 1 to 50 nM for the second.

Compared with `CCOc1cc(C(=O)NC2CCN(C(=O)OC(C)(C)C)CC2)ccc1Nc1ncc2c(n1)N(C1CCCC1)CC(F)(F)C(=O)N2C` [Example I-221, 4-[4-(9-cyclopentyl-7,7-difluoro-5-methyl-6-oxo-6,7,8,9-tetrahydro-5H-pyrimido[4,5-b][1,4]diazepin-2-ylamino)-3-ethoxy-benzoylamino]-piperidine-1-carboxylic acid tert-butyl ester], `CCN1CCC(NC(=O)c2ccc(Nc3ncc4c(n3)N(C3CCCC3)CC(F)(F)C(=O)N4C)c(F)c2)CC1` [Example I-224, 4-(9-cyclopentyl-7,7-difluoro-5-methyl-6-oxo-6,7,8,9-tetrahydro-5H-pyrimido[4,5-b][1,4]diazepin-2-ylamino)-N-(1-ethyl-piperidin-4-yl)-3-fluoro-benzamidemide] is lower in IC50: 51 to 500 nM for the first, 1 to 50 nM for the second. The second is the more potent here.

`CN1C(=O)C(F)(F)CN(C2CCCC2)c2nc(Nc3ccc(C(=O)NC4CCOCC4)cc3F)ncc21` [Example I-225, 4-(9-cyclopentyl-7,7-difluoro-5-methyl-6-oxo-6,7,8,9-tetrahydro-5H-pyrimido[4,5-b][1,4]diazepin-2-ylamino)-3-fluoro-N-(tetrahydro-pyran-4-yl)-benzamide] and `CN1C(=O)C(F)(F)CN(C2CCCC2)c2nc(Nc3cc(F)c(C(=O)NC4CCOCC4)cc3F)ncc21` [Example I-235, 4-(9-cyclopentyl-7,7-difluoro-5-methyl-6-oxo-6,7,8,9-tetrahydro-5H-pyrimido[4,5-b][1,4]diazepin-2-ylamino)-2,5-difluoro-N-(tetrahydro-pyran-4-yl)-benzamide] fall in the same range of IC50: 1 to 50 nM for the first, 1 to 50 nM for the second.

`CN(C)CCNC(=O)c1ccc(Nc2ncc3c(n2)N(C2CCCC2)CC(F)(F)C(=O)N3C)c(F)c1` [Example I-226, 4-(9-cyclopentyl-7,7-difluoro-5-methyl-6-oxo-6,7,8,9-tetrahydro-5H-pyrimido[4,5-b][1,4]diazepin-2-ylamino)-N-(2-dimethylamino-ethyl)-3-fluoro-benzamide] and `CN(C)CCCNC(=O)c1ccc(Nc2ncc3c(n2)N(C2CCCC2)CC(F)(F)C(=O)N3C)c(F)c1` [Example I-227, 4-(9-cyclopentyl-7,7-difluoro-5-methyl-6-oxo-6,7,8,9-tetrahydro-5H-pyrimido[4,5-b][1,4]diazepin-2-ylamino)-N-(3-dimethylamino-propyl)-3-fluoro-benzamide] fall in the same range of IC50: 1 to 50 nM for the first, 1 to 50 nM for the second.

`CNC(=O)c1ccc(Nc2ncc3c(n2)N(C2CCCC2)CC(F)(F)C(=O)N3C)c(F)c1` [Example I-228, 4-(9-cyclopentyl-7,7-difluoro-5-methyl-6-oxo-6,7,8,9-tetrahydro-5H-pyrimido[4,5-b][1,4]diazepin-2-ylamino)-3-fluoro-N-methyl-benzamide] and `CNC(=O)c1cc(F)c(Nc2ncc3c(n2)N(C2CCCC2)CC(F)(F)C(=O)N3C)cc1F` [Example I-238, 4-(9-cyclopentyl-7,7-difluoro-5-methyl-6-oxo-6,7,8,9-tetrahydro-5H-pyrimido[4,5-b][1,4]diazepin-2-ylamino)-2,5-difluoro-N-methyl-benzamide] fall in the same range of IC50: 1 to 50 nM for the first, 1 to 50 nM for the second.

`CN1CCC(NC(=O)c2cc(F)c(Nc3ncc4c(n3)N(C3CCCC3)CC(F)(F)C(=O)N4C)cc2F)CC1` [Example I-233, 4-(9-cyclopentyl-7,7-difluoro-5-methyl-6-oxo-6,7,8,9-tetrahydro-5H-pyrimido[4,5-b][1,4]diazepin-2-ylamino)-2,5-difluoro-N-(1-methyl-piperidin-4-yl)-benzamide] and `CCN1CCC(NC(=O)c2cc(F)c(Nc3ncc4c(n3)N(C3CCCC3)CC(F)(F)C(=O)N4C)cc2F)CC1` [Example I-234, 4-(9-cyclopentyl-7,7-difluoro-5-methyl-6-oxo-6,7,8,9-tetrahydro-5H-pyrimido[4,5-b][1,4]diazepin-2-ylamino)-N-(1-ethyl-piperidin-4-yl)-2,5-difluoro-benzamide] fall in the same range of IC50: 1 to 50 nM for the first, 1 to 50 nM for the second.

`CN(C)CCNC(=O)c1cc(F)c(Nc2ncc3c(n2)N(C2CCCC2)CC(F)(F)C(=O)N3C)cc1F` [Example I-236, 4-(9-cyclopentyl-7,7-difluoro-5-methyl-6-oxo-6,7,8,9-tetrahydro-5H-pyrimido[4,5-b][1,4]diazepin-2-ylamino)-N-(2-dimethylamino-ethyl)-2,5-difluoro-benzamide] and `CN(C)CCCNC(=O)c1cc(F)c(Nc2ncc3c(n2)N(C2CCCC2)CC(F)(F)C(=O)N3C)cc1F` [Example I-237, 4-(9-cyclopentyl-7,7-difluoro-5-methyl-6-oxo-6,7,8,9-tetrahydro-5H-pyrimido[4,5-b][1,4]diazepin-2-ylamino)-N-(3-dimethylamino-propyl)-2,5-difluoro-benzamide] fall in the same range of IC50: 1 to 50 nM for the first, 1 to 50 nM for the second.
